Assays:
[1] = system: MIAPACA2 cells; test: ROS measurements (CM-H2DCFDA, MitoSOX); assay type: cell-based, human; conditions: 24 h
Method: FIGS. 2A-2I. FIG. 2A: representative immunoblots of MIAPACA2 PDAC cells treated as indicated for 24h. FIGS. 2B-2C: reactive oxygen species (ROS) measurement using CM-H2DCFDA staining after HCT13 (25 nM)+Cu(II) (20 μM) treatment for 24h; mean fluorescence intensity (MFI); mean±SD, n=2, Student t-test, ***P<0.001. FIG. 2D-2E: mitochondrial ROS detection using MitoSOX staining in MIAPACA2 PDAC cells treated with HCT-13 (25 nM)+Cu(II) (20 μM) for 24h; mean±SD, n=2, Student t-test, ***P<0.001. FIG. 2F: oxygen consumption rate (OCR) of MIAPACA2 PDAC cells treated with HCT-13 (25 nM)+Cu(II) (20 μM). FIG. 2G: OCR of isolated mitochondria measured with or without HCT-13 (25 nM)+Cu(II) (20 μM). FIG. 2H: viability of 143 BTK parental (wild type, WT) and po cells after 48 h of treatment with the indicated HCT-13 concentrations+Cu(II) (20 μM) treatment, assessed with trypan blue staining; mean±SD, n=2, Student t-test, ***P<0.001. […]
ROS Measurements: Cellular ROS measurement was assayed with CM-H2DCFDA staining after treatment according to manufacturer's instructions (Reactive Oxygen Species (ROS) Detection Reagents, Invitrogen, #D399). […] The samples were analyzed using flow cytometry.
Mitochondrial ROS was measured using MitoSOX staining according to manufacturer's instructions (MitoSOX, Invitrogen, #M36008). […]
ROS Measurements. […] The samples were analyzed using flow cytometry. […]

[2] = system: MIAPACA2 cells; test: Proliferation assay (CellTiter-Glo, 72 h) in MIAPACA2 cells; assay type: cell-based, human
[3] = system: MIAPACA-2 cells; test: Nucleotide pool measurement by LC-MS/MS-MRM; assay type: cell-based, human; conditions: 25 nM HCT-13 + Cu(II), 48 hours
Method: FIGS. 4A-4G show the chemical genomics screen identifying the replication stress response pathway as an actionable co-dependency of HCT13-treated cells. FIG. 4A: experimental design of a synthetic lethality screen using a library of protein kinase inhibitors against HCT13-treated cells in the presence of Cu(II) (20 μM). FIG. 4B: radar plot of screen results. FIG. 4C: z-score values for kinase inhibitors within the DNA damage response/replication stress response (DDR/RSR) pathway module. FIG. 4D: representative immunoblot of replication stress and cell death biomarkers in MIAPACA2 PDAC cells treated with HCT13 (10 nM)+Cu(II) (20 μM). […]
These observations are indicative of DDR/RSR pathway activation, which was hypothesized to arise from nucleotide insufficiency and/or, given the ability of copper to generate ROS, from ROS-mediated DNA damage. […] To test the former hypothesis, nucleotide levels were measured in treated and non-treated cells using liquid chromatography-tandem mass spectrometry with multiple reaction monitoring (LC-MS/MS-MRM) as previously described by Le et al, Nature Communications 2017, 8(1):1-14. […] These findings indicate that HCT-13 preferentially decreases the dGTP and rGTP pools, potentially via oxidative processes as guanine is the most readily oxidized nucleobase. […]

[4] = system: normal human epithelial cell line HPDE; test: Proliferation assay in normal epithelial cell line HPDE; assay type: cell-based
Method: Serum copper levels are elevated (>20 μM) in individuals with solid tumor types such as pancreatic ductal adenocarcinoma (PDAC), small cell lung carcinoma (SCLC), and prostate cancer (PC). (Refs. 43-48). These cancers rely upon elevated copper levels to sustain growth, making this transition metal a viable target for therapeutic modulation. (Ref 34).
Proliferation assay: Cells were plated in 384-well plates (500 cells/well for adherent cell lines in 30 μl volume). Drugs were serially diluted to the desired concentrations and an equivalent volume of DMSO was added to vehicle control. Following 72 h incubation, ATP content was measured using CellTiter-Glo reagent according to manufacturer's instructions (Promega, CellTiter-Glo Luminescent Cell Viability Assay), and analyzed by SpectraMax luminometer (Molecular Devices). IC50 and IC90 values, concentrations required to inhibit proliferation by 50% and 90% respectively compared to DMSO treated cells, were calculated using Prism 6.0 h (Graphpad Software).

CN(C)C(=S)N/N=C/c1nccc2cc(F)ccc12 (mixture of isomers) [HCT13, (E)-2-((6-Fluoroisoquinolin-1-yl)methylene)-N,N-dimethylhydrazine-1-carbothioamide and (Z)-2-((6-Fluoroisoquinolin-1-yl)methylene)-N,N-dimethylhydrazine-1-carbothioamide]
ROS generation (CM-H2DCFDA staining) ([1]; HCT13 25 nM + Cu(II) 20 μM): induced ROS generation
mitochondrial ROS (MitoSOX) ([1]; HCT-13 25 nM + Cu(II) 20 μM): also observed in the mitochondria
antiproliferative potency with Fe(II) supplementation ([2]; Fe(II) 20 μM): diminished but still active
antiproliferative potency with Zn(II) supplementation ([2]; Zn(II) 20 μM): largely inactive
dGTP and rGTP pools [3]: decreased
sensitivity of normal cells versus cancer models [4]: markedly more resistant

Source: US12528774B2, “Thiosemicarbazone compounds and uses thereof” (The Regents of the University of California, priority 2019, dated 2026)
